Measurements: ChEMBL document CHEMBL6083277, “Discovery of SZJK-0421: A Novel Potent, Low Toxicity, Selective Second Generation of CRM1 Inhibitor for the Treatment of Both Hematological and Solid Tumors” (J Med Chem, 2024)
Active and inactive are the calls of the source. The calls are words filed in the database; no cut-off is given here.

Key:
MV4-11 = test: Antiproliferative activity against human MV4-11 cells assessed as inhibition of cell growth incubated for 72 hrs by celltiter-glo assay; assay type: functional, cell-based; conditions: MV4-11, 72 h
MM1.S = test: Inhibition of CRM1 protein expression in human MM1.S cells by Western blot analysis; assay type: functional, cell-based; conditions: dose 0.25-1.25 µM
[1] = target: Exportin-1 (Homo sapiens) (UniProt O14980); test: Inhibition of CRM1 in human MM1.S cells assessed as accumulation of p53 protein level at 0.5 to 1 uM incubated for 24 hrs by Western blot analysis; assay type: cell-based; conditions: dose 0.5-1 µM
[2] = Toxicity in NOD-SCID mouse implanted with human HCT-116 cells assessed as body weight loss at 60 mg/kg, po measured every 2 days for 21 days; assay type: organism-based; conditions: in vivo, 504 h, time 21 day
[3] = Toxicity in NOD-SCID mouse assessed as reduction in cell density in tumor at 60 mg/kg, po measured every 2 days for 21 days by H and E staining based analysis; assay type: organism-based; conditions: in vivo, 504 h, time 21 day

Exportin-1 (Homo sapiens), sequence (O14980 whole entry): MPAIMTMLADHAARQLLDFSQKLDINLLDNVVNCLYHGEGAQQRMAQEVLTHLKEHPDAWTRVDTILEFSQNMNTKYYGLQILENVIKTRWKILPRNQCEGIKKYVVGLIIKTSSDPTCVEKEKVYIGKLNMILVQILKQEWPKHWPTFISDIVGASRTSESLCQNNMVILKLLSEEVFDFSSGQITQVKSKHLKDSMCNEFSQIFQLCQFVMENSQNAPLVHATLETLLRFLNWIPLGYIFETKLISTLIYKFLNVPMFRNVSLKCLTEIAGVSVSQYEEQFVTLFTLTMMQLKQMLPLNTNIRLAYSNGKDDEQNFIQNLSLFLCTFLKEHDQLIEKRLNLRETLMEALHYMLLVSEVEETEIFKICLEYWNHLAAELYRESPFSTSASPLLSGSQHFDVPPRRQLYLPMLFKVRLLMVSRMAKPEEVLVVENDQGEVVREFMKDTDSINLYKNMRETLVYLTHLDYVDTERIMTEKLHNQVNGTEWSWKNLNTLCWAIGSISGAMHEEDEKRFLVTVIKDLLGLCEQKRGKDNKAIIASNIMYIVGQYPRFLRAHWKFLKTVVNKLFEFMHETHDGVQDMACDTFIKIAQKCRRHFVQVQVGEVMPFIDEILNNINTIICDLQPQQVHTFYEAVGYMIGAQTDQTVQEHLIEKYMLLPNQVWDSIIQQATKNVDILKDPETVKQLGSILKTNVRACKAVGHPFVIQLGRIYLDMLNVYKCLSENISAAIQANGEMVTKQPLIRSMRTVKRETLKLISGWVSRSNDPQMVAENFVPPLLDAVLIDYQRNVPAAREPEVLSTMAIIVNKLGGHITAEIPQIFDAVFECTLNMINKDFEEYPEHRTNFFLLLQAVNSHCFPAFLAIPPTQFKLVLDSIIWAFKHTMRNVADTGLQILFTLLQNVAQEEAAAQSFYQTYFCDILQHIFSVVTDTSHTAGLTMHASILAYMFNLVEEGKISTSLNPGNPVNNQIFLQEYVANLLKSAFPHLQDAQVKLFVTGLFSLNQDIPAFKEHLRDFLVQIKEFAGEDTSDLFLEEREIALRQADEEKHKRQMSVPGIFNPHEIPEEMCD

For `CONC(=O)/C(=C/n1cnc(-c2cc(C(F)(F)F)cc(C(F)(F)F)c2)n1)c1cncnc1`, the IC50 (MV4-11) was 43.5 nM, the inhibition (MM1.S) was “Dose-dependent-effect” and the inhibition [1] was “Active”. For the same compound, the Activity [2] was “Non-toxic” and the Activity [3] was “Non-toxic”.
